Read-outs that look alike come from different tables or passages of the source.
Test: Multi-component pharmacokinetic study of GQD, GQD-GC and single herb extracts in rats (plasma, LC/MS/MS)
Format: in vivo, Sprague-Dawley rats
Conditions: for AUC(0-t) / Cmax / half-life / Tmax: male, Sprague-Dawley, rat, plasma; for AUC(0-t): po, read-out: AUClast; for Cmax: read-out: Cmax; for half-life: read-out: T1/2 (converted); for Tmax: read-out: Tmax
Experimental: Male Sprague-Dawley rats (220–250 g) were used for PK study, and the details were described in Supplemental Data. All procedures were in accordance with the National Institutes of Health Guide for the Care and Use of Laboratory Animals.
For PK study of GQD and its component herbs, rats were randomly divided into six groups (n = 10 for each group) before oral administration.
All blood samples were immediately centrifuged at 6,000 rpm (4°C) for 20 min to obtain plasma. The plasma samples were stored at −80°C.
A Finnigan TSQ Quantum triple quadrupole mass spectrometer was connected to a Surveyor HPLC via ESI interface (ThermoFisher). High purity nitrogen was used as the sheath and auxiliary gas; Ultra-high purity argon was used as the collision gas (1.5 mTorr). Q1 and Q3 quadrupoles were set at unit resolution. […] The column temperature was 40°C. The mobile phase consisted of acetonitrile containing 2% (v/v) methanol (A) and water containing 0.1% (v/v) formic acid (B). […] An aliquot of 5 μL was injected for analysis. UV spectra were obtained by scanning from 200 to 400 nm. The mass spectrometer was operated in the (+)-ESI mode. The optimized parameters were as follows: sheath gas (N2), 50 arb; auxiliary gas (N2), 5 arb; spray voltage, 4.0 kV; capillary temperature, 330°C; collision energy, see Table S1. Analytes were detected in the selected reaction monitoring (SRM) mode. Data were processed by Xcalibur 2.0.7 software (ThermoFisher).
LC/MS/MS calibration and quantitation data were processed with Xcalibur 2.0.7 software (ThermoFisher). The maximal plasma concentrations (Cmax) and their time of occurrence (Tmax) were obtained directly from the measured data. Other pharmacokinetic parameters were calculated by non-compartment or compartment models using WinNonlin® software (v6.1, Pharsight). Unless otherwise stated, results were expressed as the mean ± SD. Statistical significance in differences of the means was determined by Student's t–test, with a significance level of P < 0.05.
Herbal materials and extracts.
The four component herbs, Puerariae Lobatae Radix (Ge-Gen, GG), Scutellariae Radix (Huang-Qin, HQ), Coptidis Rhizoma (Huang-Lian, HL), and Glycyrrhizae Radix et Rhizoma Praeparata cum Melle (Gan-Cao, GC) were purchased from Tianheng Pharmacy. GQD was prepared by decocting the four component herbs […]
pre-extraction of Ge-Gen using 200 mL of water for 0.5 h. The decoctions were combined, filtered, and concentrated in vacuum at 50 °C. GQD-GC was prepared using the same procedure, except that Gan-Cao was removed from the formula. Final concentration of the GQD-GC extract was equivalent to 1.0 g of the crude drugs per mL. For single herb extracts, the herbs were decocted in 8-fold volume of water for […]
Final concentrations of the extracts were 1.0 g/mL for Ge-Gen, and 0.5 g/mL for Huang-Qin, Huang-Lian and […]
For pharmacokinetic study, Male Sprague-Dawley rats (220-250 g) were obtained from the Laboratory Animal Center of Peking University Health Science Center. The […]
The rats had free access to tap water and soy-free custom diet (Ke’ao Xieli Co.). All procedures were in accordance with the National Institutes of Health Guide for the Care and Use of Laboratory Animals […]
Experimental details for the PK study
1. Preparation of internal standard solution, calibration standard solutions, and quality control solutions […]
internal standard solution. Reference standard compounds were dissolved in the internal standard solution to prepare individual stock solutions (1.0 mg/mL). These […]
each compound. The standard solution was then serially diluted to obtain calibration […]
Quality control stock solutions were prepared at three concentration levels as high QC (HQC), middle QC (MQC), and low QC (LQC), based on linear ranges of the analytes.
2.1. Sample preparation for pharmacokinetic study
The calibration standard and quality control solutions for pharmacokinetic study were […]

[1] = 9.45 g/kg, GG (Ge-Gen) group: rats, oral extract 9.45 g/kg
[2] = 16.5 g/kg, GQD-GC group (GQD without Gan-Cao): rats, oral 16.5 g/kg
[3] = 18.9 g/kg, GQD group: rats, oral GQD extract 18.9 g/kg
[4] = GG (Ge-Gen) group: rats, oral extract 9.45 g/kg
[5] = GQD group: rats, oral GQD extract 18.9 g/kg
[6] = GQD-GC group (GQD without Gan-Cao): rats, oral 16.5 g/kg
[7] = 3.54 g/kg, HL (Huang-Lian) group: rats, oral extract 3.54 g/kg
[8] = HL (Huang-Lian) group: rats, oral extract 3.54 g/kg

SMILES	AUC(0-t) [1] [ng·h/mL]	AUC(0-t) [2] [ng·h/mL]	AUC(0-t) [3] [ng·h/mL]	Cmax [4] [ng/mL]	half-life [4] [h]	Tmax [4] [h]	Cmax [5] [ng/mL]	half-life [5] [h]	Tmax [5] [h]	Cmax [6] [ng/mL]	half-life [6] [h]	Tmax [6] [h]	bioavailability in the GQD group compared with the Ge-Gen group (rats, oral)	AUC(0-t) [7] [ng·h/mL]	Cmax [8] [ng/mL]	half-life [8] [h]	Tmax [8] [h]	other results
O=c1c(-c2ccc(O)cc2)coc2c([C@@H]3O[C@H](CO)[C@@H](O)[C@H](O)[C@H]3O)c(O)ccc12 [Compound 7, puerarin]	5020 ± 536	5610 ± 279	8610 ± 766	488 ± 23.9	6.36 ± 4.39	0.59 ± 0.01	577 ± 56.3	5.58 ± 2.9	1.2 ± 1.49	416 ± 232	8.29 ± 2.22	0.52 ± 0.07	higher					AUC(0-t) (9.45 g/kg, Ge-Gen group: rats, oral 9.45 g/kg): 5020 ± 536 ng·h/mL
COc1cc2c(cc1O)CC[n+]1cc3c(OC)c(OC)ccc3cc1-2 [Compound 23, jatrorrhizine]		105 ± 34.2	195 ± 25.7				8.54 ± 0.05	6.97 ± 1.77	0.72 ± 0.11	9.14 ± 0.82	3.12 ± 0.13	0.63 ± 0.32		119 ± 52.4	6.6 ± 0.59	5.15 ± 1.74	0.61 ± 0.11	AUC(0-t) (3.54 g/kg, Huang-Lian group: rats, oral 3.54 g/kg): 119 ± 52.4 ng·h/mL; AUC(0-t) (16.5 g/kg, GQD−GC group: rats, oral 16.5 g/kg): 105 ± 34.2 ng·h/mL; AUC(0-t) (18.9 g/kg, GQD group: rats, oral GQD 18.9 g/kg (1.5-fold of clinical dosage)): > 100 ng·h/mL; increase of AUClast in GQD group compared with the Huang-Lian group (rats, oral, GQD vs Huang-Lian): 63.6%
COc1cc2c(cc1OC)-c1cc3ccc4c(c3c[n+]1CC2)OCO4 [Compound 22, epiberberine]		26.4 ± 11	29.4 ± 21.3				7.21 ± 3.62	4.84 ± 0.13	0.58 ± 0.12	9.35 ± 1.71	4.97 ± 0.85	0.54 ± 0.17		16.7 ± 9.45	3.53 ± 0.34	4.34 ± 0.18	0.58 ± 0.23	
COc1ccc(-c2coc3c(C4OC(COC5OCC(O)(CO)C5O)C(O)C(O)C4O)c(O)ccc3c2=O)cc1 (stereo not shown) [Compound 5, formononetin 8-C-apiofuranosyl(1,6)glucoside]	85 ± 19.2	26 ± 7.29	168 ± 83.3	18.4 ± 5.1	8.98 ± 2.34	0.39 ± 0.17	16 ± 5.44	7.03 ± 2.31	0.76 ± 3.76	6.87 ± 2.05	5.23 ± 1.35	0.52 ± 0.65	higher					

From PMC6018403 (Frontiers in Pharmacology, 2018)
